From ChEMBL document CHEMBL5465560, “Selectivity Literature for EUbOPEN Chemogenomic Library” (2024)
One block for each compound: values may come before it.

Experiments:
[1] = target: BMP-2-inducible protein kinase (Homo sapiens) (UniProt Q9NSY1); experiment: Selectivity interaction (Ambit KINOMEscan and KiNATiv profiling in Jurkat cells) EUB0000090b BMP2K; assay type: cell-based; settings: at 1 µM
[2] = target: Proto-oncogene tyrosine-protein kinase ROS (Homo sapiens) (UniProt P08922); experiment: Selectivity interaction (KinomeScan (DiscoverX)) EUB0000655a ROS1; settings: at 10 µM
Insulin receptor = Insulin receptor (Homo sapiens, UniProt P06213); experiment: Selectivity interaction (KinomeScan (DiscoverX)) EUB0000655a INSR; settings: at 10 µM
[3] = target: Platelet-derived growth factor receptor alpha (Homo sapiens, UniProt P16234); experiment: Selectivity interaction (Kinase panel (Invitrogen)) EUB0000639a PDGFRA; settings: at 200 nM
[4] = target: Casein kinase II subunit alpha (Homo sapiens, UniProt P68400); experiment: Selectivity interaction (KinomeScan (DiscoverX)) EUB0000092b CSNK2A1; settings: at 10 µM
[5] = target: T1, Mitogen-activated protein kinase kinase kinase 7 (Homo sapiens) (UniProt O43318); experiment: Selectivity interaction (KinomeScan (DiscoverX)) EUB0000695a MAP3K7; settings: at 100 nM
T1 sequence (whole entry): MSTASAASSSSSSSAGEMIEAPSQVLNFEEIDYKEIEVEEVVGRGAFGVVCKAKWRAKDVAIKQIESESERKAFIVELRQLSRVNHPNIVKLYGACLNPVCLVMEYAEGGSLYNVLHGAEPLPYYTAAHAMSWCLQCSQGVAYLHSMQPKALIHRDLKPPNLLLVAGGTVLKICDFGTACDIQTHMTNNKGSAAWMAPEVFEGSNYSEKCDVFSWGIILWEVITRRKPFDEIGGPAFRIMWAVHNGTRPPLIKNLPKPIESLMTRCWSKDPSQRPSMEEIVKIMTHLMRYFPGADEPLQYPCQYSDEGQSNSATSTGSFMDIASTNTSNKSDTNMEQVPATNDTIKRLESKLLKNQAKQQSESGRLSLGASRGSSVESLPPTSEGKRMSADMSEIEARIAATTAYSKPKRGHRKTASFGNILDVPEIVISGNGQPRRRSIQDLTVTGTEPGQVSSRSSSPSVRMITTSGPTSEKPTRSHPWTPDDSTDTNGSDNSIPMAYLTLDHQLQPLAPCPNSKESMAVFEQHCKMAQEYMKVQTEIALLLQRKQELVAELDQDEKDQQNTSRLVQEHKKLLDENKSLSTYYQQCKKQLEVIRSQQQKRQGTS

[6] = target: T2, Mitogen-activated protein kinase kinase kinase kinase 3 (Homo sapiens) (UniProt Q8IVH8); experiment: Selectivity interaction (KinomeScan (DiscoverX)) EUB0000695a MAP4K3; settings: at 100 nM
T2 sequence (whole entry): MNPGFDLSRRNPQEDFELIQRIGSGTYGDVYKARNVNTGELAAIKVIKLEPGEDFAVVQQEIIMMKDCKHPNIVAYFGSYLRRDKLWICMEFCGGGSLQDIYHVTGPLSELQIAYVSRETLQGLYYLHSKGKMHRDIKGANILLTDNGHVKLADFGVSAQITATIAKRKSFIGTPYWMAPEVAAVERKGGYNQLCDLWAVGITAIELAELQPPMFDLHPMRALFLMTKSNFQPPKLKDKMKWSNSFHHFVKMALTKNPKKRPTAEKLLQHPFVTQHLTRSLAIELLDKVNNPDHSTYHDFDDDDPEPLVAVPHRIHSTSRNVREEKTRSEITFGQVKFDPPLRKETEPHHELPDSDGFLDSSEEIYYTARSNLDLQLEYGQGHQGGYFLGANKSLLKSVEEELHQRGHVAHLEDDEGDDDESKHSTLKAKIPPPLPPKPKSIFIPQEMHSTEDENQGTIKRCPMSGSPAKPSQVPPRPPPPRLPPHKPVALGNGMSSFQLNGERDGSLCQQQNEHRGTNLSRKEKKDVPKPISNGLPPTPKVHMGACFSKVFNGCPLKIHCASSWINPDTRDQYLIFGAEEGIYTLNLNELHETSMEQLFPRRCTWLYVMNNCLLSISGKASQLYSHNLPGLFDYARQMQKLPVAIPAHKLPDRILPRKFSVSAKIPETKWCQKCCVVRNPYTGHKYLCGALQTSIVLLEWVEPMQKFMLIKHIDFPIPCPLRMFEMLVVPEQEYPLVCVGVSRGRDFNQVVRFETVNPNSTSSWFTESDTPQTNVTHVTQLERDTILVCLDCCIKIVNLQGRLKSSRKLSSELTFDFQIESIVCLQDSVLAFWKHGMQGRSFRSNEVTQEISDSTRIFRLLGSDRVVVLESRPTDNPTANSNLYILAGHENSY

Sequence of Insulin receptor (P06213 28-758 limits assumed): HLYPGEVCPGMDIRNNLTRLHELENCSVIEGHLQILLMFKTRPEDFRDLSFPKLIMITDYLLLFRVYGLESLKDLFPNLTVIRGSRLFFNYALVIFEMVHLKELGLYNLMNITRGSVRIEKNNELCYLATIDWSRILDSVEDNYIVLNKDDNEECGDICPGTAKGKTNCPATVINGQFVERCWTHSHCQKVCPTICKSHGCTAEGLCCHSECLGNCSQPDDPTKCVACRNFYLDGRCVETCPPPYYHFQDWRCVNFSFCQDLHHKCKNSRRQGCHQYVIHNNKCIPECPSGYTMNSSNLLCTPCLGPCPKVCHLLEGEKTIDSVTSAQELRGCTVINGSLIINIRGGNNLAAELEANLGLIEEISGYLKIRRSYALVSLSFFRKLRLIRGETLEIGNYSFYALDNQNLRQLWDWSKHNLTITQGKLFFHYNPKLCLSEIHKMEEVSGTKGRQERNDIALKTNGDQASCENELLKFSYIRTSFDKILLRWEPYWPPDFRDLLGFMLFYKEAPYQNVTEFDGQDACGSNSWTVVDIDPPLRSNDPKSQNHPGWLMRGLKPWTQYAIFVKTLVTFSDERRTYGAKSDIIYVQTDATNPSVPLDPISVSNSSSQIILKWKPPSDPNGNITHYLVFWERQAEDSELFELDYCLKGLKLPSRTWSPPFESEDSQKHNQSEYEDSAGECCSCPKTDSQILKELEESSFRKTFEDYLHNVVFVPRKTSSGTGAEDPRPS
Sequence of Insulin receptor (P06213 763-1382 limits assumed): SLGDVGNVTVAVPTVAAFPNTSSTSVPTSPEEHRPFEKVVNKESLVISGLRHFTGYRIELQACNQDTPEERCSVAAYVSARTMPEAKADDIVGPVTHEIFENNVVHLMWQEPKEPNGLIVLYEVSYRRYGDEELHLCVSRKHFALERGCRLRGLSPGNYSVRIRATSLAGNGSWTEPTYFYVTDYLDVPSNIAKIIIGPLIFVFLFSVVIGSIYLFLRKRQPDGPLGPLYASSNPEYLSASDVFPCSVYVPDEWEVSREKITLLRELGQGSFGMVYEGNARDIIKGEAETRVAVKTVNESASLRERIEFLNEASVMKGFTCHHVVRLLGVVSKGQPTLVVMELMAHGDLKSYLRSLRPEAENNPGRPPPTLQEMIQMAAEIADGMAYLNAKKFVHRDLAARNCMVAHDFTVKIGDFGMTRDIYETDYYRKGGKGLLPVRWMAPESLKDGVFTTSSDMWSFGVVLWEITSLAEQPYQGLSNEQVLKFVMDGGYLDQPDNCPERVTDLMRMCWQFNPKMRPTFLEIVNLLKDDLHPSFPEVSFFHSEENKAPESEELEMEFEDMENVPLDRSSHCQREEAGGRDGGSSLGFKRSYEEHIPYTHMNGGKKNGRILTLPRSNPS
Sequence of Platelet-derived growth factor receptor alpha (P16234 whole entry): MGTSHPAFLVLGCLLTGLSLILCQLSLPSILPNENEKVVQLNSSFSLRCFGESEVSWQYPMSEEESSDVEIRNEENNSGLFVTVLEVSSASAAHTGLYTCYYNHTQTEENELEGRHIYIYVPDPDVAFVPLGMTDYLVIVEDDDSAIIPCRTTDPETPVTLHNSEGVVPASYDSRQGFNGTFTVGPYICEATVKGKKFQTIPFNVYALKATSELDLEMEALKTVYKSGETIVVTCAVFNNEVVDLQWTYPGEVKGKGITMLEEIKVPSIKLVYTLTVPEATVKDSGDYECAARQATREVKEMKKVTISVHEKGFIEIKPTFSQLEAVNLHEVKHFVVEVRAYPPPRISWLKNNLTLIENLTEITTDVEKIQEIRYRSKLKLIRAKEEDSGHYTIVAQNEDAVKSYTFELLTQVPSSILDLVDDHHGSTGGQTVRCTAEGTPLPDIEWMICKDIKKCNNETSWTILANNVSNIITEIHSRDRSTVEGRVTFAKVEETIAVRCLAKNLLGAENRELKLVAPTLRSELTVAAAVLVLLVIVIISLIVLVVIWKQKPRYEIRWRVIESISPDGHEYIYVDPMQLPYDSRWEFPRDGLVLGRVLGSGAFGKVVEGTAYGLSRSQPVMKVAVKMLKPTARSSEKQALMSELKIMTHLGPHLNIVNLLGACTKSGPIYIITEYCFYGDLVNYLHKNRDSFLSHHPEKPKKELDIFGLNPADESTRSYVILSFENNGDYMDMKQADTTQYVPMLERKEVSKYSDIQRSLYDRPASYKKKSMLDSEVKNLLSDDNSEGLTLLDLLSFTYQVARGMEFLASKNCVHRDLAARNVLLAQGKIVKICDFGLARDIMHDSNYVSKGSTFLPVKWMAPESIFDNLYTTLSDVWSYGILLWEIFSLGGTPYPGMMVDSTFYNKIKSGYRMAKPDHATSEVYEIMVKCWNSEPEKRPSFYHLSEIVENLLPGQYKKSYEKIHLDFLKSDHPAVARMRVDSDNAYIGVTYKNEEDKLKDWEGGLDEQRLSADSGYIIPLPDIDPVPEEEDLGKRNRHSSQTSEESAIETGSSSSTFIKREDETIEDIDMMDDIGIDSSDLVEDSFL
Sequence of Casein kinase II subunit alpha (P68400 whole entry, looked up): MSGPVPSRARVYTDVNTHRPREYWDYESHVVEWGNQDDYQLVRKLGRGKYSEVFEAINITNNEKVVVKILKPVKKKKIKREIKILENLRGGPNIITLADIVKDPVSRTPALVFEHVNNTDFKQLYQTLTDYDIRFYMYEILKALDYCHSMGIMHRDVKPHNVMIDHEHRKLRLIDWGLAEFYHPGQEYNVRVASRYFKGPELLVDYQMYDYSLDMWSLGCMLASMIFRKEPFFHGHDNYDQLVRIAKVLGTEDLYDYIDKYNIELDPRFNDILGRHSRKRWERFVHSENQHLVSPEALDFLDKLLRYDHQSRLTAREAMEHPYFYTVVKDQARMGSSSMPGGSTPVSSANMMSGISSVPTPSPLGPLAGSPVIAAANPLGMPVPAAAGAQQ
Sequence of BMP-2-inducible protein kinase (Homo sapiens) (Q9NSY1 whole entry, looked up): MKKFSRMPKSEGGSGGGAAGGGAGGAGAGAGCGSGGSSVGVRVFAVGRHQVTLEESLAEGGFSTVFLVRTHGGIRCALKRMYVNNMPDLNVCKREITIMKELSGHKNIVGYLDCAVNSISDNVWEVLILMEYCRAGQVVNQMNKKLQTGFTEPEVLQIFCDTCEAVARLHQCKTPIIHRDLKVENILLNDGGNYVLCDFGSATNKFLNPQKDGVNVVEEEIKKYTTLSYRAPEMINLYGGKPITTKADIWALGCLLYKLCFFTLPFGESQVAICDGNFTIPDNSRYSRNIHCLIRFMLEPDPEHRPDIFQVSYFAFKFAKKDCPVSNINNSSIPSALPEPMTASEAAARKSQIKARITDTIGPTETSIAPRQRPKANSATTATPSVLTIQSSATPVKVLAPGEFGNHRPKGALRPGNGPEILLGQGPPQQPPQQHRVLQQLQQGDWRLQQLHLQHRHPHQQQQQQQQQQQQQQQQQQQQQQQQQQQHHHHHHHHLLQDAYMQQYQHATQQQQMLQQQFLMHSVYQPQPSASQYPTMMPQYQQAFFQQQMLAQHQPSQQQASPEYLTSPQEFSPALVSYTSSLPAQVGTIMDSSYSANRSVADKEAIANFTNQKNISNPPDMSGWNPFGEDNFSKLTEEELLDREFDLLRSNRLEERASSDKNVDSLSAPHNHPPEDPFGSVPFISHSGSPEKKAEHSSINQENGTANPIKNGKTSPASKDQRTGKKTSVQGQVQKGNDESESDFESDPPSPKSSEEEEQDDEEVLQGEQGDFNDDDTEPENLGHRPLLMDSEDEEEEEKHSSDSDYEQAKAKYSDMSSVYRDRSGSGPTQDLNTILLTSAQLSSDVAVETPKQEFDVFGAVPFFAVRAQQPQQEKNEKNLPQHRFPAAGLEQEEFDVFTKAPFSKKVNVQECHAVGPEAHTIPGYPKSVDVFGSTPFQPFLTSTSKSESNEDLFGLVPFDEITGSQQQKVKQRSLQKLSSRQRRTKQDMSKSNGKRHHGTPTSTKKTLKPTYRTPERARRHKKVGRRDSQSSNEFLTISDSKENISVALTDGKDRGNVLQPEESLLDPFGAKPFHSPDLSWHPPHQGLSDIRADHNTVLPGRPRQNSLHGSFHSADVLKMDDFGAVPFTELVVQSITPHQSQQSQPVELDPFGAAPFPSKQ

Structure (SMILES): CN(C)C/C=C/C(=O)Nc1ccc(C(=O)N2CCCC(Nc3ncc(Cl)c(-c4c[nH]c5ccccc45)n3)C2)cc1 (configuration not stated)
% of control [1]: 100%

Structure (SMILES): CN(C)CCOc1ccc(-c2nc(-c3ccncc3)c(-c3ccc4c(c3)CC/C4=N\O)[nH]2)cc1
% of control [2]: 88%
% of control (Insulin receptor): 100%

% of inhibition [3]: 1.87%
Structure (SMILES): CC[C@@H]1[C@H](F)C(=O)N[C@@H]1COc1nccc2cc(C(N)=O)c(OC)cc12 [ZIMLOVISERTIB]

Structure (SMILES): CCC(=O)N1CCN(c2ccc(-n3c(=O)ccc4cnc5ccc(-c6cnc7ccccc7c6)cc5c43)cc2C(F)(F)F)CC1
% of control [4]: 94%

Structure (SMILES): Cc1cc(F)c(C(=O)Nc2cccc(-c3nncn3C(C)C)n2)cc1-n1cnc(C2CC2)c1
% of control [5]: 81%
% of control [6]: 70%
